SMILES strings stand for the structures.

The subject of assay [1] is ZO-1. Briefly: ZO-1 immunohistochemical staining of spinal cord sections after spinal cord injury. The class given is in vivo, mouse. The note with it: tissue sections after spinal cord injury, vs saline.
Method: Adult male C57BL/6 mice (20˜30 g) were anaesthetized with chloral hydrate (500 mg/kg) and T8˜T10 were exposed. The exposed T9 was subjected to contusion injury (by dropping a weight at the impact strength of 40 kd) using PSI (Precision Systems and Instrumentation) impactor. After confirming that a certain damage was given within the error range based on the data of injury level, the incision sites were sealed. After disinfecting the incision sites, the mice were raised in cages (2 mice/cage). Urination was induced by massaging the bladder three times a day. […] Louis, Mo.) dissolved in saline was immediately administered into injured mice via intraperitoneal injection (200 mg/kg). Saline was administered for the control. The administration was performed once a day and continued for 2 weeks. […] Spinal nerve was cut, followed by embedding in OCT compound, which was sectioned by using a cryostat. […] 10 μm tissue sections were reacted under the condition proposed in each primary antibody manual, followed by color development by using secondary antibodies. For immunofluorescence staining, secondary antibodies of Jackson were used. For DAB color development, Vectastatin kit (Vector) was used.
For assay [2] the following is noted: maximal electroshock convulsion test in mouse; Leander 1992; cited from earlier work.
In a further assay the test system is CCL-4. Briefly: CCL-4 chemoattractant expression by RT-PCR after spinal cord injury. The assay is classed as in vivo, mouse. As to conditions: 1~5 days after spinal cord injury.
The next assay concerns CCL-3. Put plainly: CCL-3 chemoattractant expression by RT-PCR after spinal cord injury. The assay is classed as in vivo, mouse. The note with it: 1~5 days after spinal cord injury.
The test system of another assay is MMP-12. Briefly: MMP-12 expression by RT-PCR in spinal cord tissue after spinal cord injury. The class given is in vivo. The note with it: mouse treated with fluoxetine (200 mg/kg i.p. once a day) after spinal cord injury vs saline.
The test system of assay [3] is MMP-9. Briefly: MMP-9 activation by gelatin zymography of spinal cord tissue after spinal cord injury. The class given is in vivo, mouse. As to conditions: spinal cord tissue 1 day (peak time) after spinal cord injury, vs saline.
Method: (§1) Adult male C57BL/6 mice (20˜30 g) were anaesthetized with chloral hydrate (500 mg/kg) and T8˜T10 were exposed. The exposed T9 was subjected to contusion injury (by dropping a weight at the impact strength of 40 kd) using PSI (Precision Systems and Instrumentation) impactor. […] Louis, Mo.) dissolved in saline was immediately administered into injured mice via intraperitoneal injection (200 mg/kg). Saline was administered for the control. The administration was performed once a day and continued for 2 weeks. […] Then, the gel was loaded in renaturing buffer (2.5% Triton X-100), followed by incubation at room temperature for 30 minutes. The gel was loaded in developing buffer (50 mM Tris-HCl, pH 8.5, 0.2 M NaCl, 5 mM CaCl2, 0.02% Brii35), which stood at 37° C. for 24 hours. […] At this time, the clear band on the zymogram gel indicated gelatinase activity.
Assay [4] relates to MMP-2. Briefly: MMP-2 activation by gelatin zymography of spinal cord tissue after spinal cord injury. The class given is in vivo, mouse. As to conditions: spinal cord tissue 1 day (peak time) after spinal cord injury, vs saline.
Method: as §1
In assay [5] the test system is MMP-2. Briefly: MMP-2 expression by RT-PCR in spinal cord tissue after spinal cord injury. The note with it: mouse treated with fluoxetine (200 mg/kg i.p. once a day) after spinal cord injury vs saline. The assay is classed as in vivo.
Method: (§2) Adult male C57BL/6 mice (20˜30 g) were anaesthetized with chloral hydrate (500 mg/kg) and T8˜T10 were exposed. The exposed T9 was subjected to contusion injury (by dropping a weight at the impact strength of 40 kd) using PSI (Precision Systems and Instrumentation) impactor. After confirming that a certain damage was given within the error range based on the data of injury level, the incision sites were sealed. After disinfecting the incision sites, the mice were raised in cages (2 mice/cage). Urination was induced by massaging the bladder three times a day. […] Louis, Mo.) dissolved in saline was immediately administered into injured mice via intraperitoneal injection (200 mg/kg). Saline was administered for the control. The administration was performed once a day and continued for 2 weeks. […] Spinal nerve was cut, followed by embedding in OCT compound, which was sectioned by using a cryostat. The spinal cord tissue for the extraction of RNA and protein proceeded to perfusion with PBS. Then, the spinal cord tissue was cut 0.8 cm from the injured area, which was stored in liquid nitrogen at −80° C. until use. RNA was extracted by using TRIZOL Reagent (Invitrogen) according to manufacturer's manual. Total reaction mixture (20 μl) containing 1 μg of RNA was prepared, followed by RT-PCR using MMLV reverse transcriptase (Invitrogen). […]
For another assay, the system named is spinal cord injury mouse. Briefly: Animal behavioral test (BBB test), recovery of exercise function after spinal cord injury. The class given is in vivo.
The test system of assay [6] is MMP-9. Put plainly: MMP-9 expression by RT-PCR in spinal cord tissue after spinal cord injury. The assay is classed as in vivo. As to conditions: mouse treated with fluoxetine (200 mg/kg i.p. once a day) after spinal cord injury vs saline.
Method: as §2
The test system of assay [7] is ZO-1. Put plainly: ZO-1 (tight junction protein) amount by western blot after spinal cord injury. The assay is classed as in vivo, mouse. As to conditions: vs saline. (In general: In western blotting, separated proteins are transferred to a membrane and probed.)
Method: Adult male C57BL/6 mice (20˜30 g) were anaesthetized with chloral hydrate (500 mg/kg) and T8˜T10 were exposed. The exposed T9 was subjected to contusion injury (by dropping a weight at the impact strength of 40 kd) using PSI (Precision Systems and Instrumentation) impactor. After confirming that a certain damage was given within the error range based on the data of injury level, the incision sites were sealed. After disinfecting the incision sites, the mice were raised in cages (2 mice/cage). Urination was induced by massaging the bladder three times a day. […] Louis, Mo.) dissolved in saline was immediately administered into injured mice via intraperitoneal injection (200 mg/kg). Saline was administered for the control. The administration was performed once a day and continued for 2 weeks. […] The protein was transferred onto nitrocellulose membrane, followed by western blot according to the protocol described in each antibody data sheet.
The subject of the next assay is macrophages. Put plainly: Macrophage infiltration into spinal cord by flow cytometry. As to conditions: flow cytometry (high CD45 and CD11b), 1 and 5 days after spinal cord injury, vs saline. The assay is classed as in vivo, mouse. For orientation: Flow cytometry measures light scatter and fluorescence of single cells or particles in a stream.
The next assay relates to neutrophils. Briefly: Neutrophil infiltration into spinal cord by flow cytometry. The assay is classed as in vivo, mouse. As to conditions: flow cytometry (high CD45 and Gr-1), 1 and 5 days after spinal cord injury, vs saline.
For a further assay, the system named is NMDA receptor. As to conditions: previous report; cited from earlier work.

Method for CCL-3: (§3) Adult male C57BL/6 mice (20˜30 g) were anaesthetized with chloral hydrate (500 mg/kg) and T8˜T10 were exposed. The exposed T9 was subjected to contusion injury (by dropping a weight at the impact strength of 40 kd) using PSI (Precision Systems and Instrumentation) impactor. After confirming that a certain damage was given within the error range based on the data of injury level, the incision sites were sealed. After disinfecting the incision sites, the mice were raised in cages (2 mice/cage). Urination was induced by massaging the bladder three times a day. […] Louis, Mo.) dissolved in saline was immediately administered into injured mice via intraperitoneal injection (200 mg/kg). Saline was administered for the control. The administration was performed once a day and continued for 2 weeks. RNA was extracted by using TRIZOL Reagent (Invitrogen) according to manufacturer's manual. Total reaction mixture (20 μl) containing 1 μg of RNA was prepared, followed by RT-PCR using MMLV reverse transcriptase (Invitrogen).
Method for CCL-4: as §3
Method for MMP-12: as §2
Method for macrophages: (§4) Adult male C57BL/6 mice (20˜30 g) were anaesthetized with chloral hydrate (500 mg/kg) and T8˜T10 were exposed. The exposed T9 was subjected to contusion injury (by dropping a weight at the impact strength of 40 kd) using PSI (Precision Systems and Instrumentation) impactor. After confirming that a certain damage was given within the error range based on the data of injury level, the incision sites were sealed. After disinfecting the incision sites, the mice were raised in cages (2 mice/cage). Urination was induced by massaging the bladder three times a day. […] Louis, Mo.) dissolved in saline was immediately administered into injured mice via intraperitoneal injection (200 mg/kg). Saline was administered for the control. The administration was performed once a day and continued for 2 weeks. The spinal cord tissue was extracted 1 and 5 days after spinal cord injury, which was added into PBS. The spinal cord tissue in PBS was mechanically disrupted with a dounce homogenizer, followed by centrifugation at 1,100 rpm for 10 minutes. The obtained pellet was resuspended in FBS containing buffer, which was centrifuged at 3,000 rpm for 7 minutes. […] After washing with FBS containing buffer, neutrophils and macrophages infiltrated into spinal cord 1 and 5 days after spinal cord injury were measured by using Becton Dickinson LSR Benchtop Flow Cytometer (BD Biosciences). […]
Method for neutrophils: as §4
Method for spinal cord injury mouse: Adult male C57BL/6 mice (20˜30 g) were anaesthetized with chloral hydrate (500 mg/kg) and T8˜T10 were exposed. The exposed T9 was subjected to contusion injury (by dropping a weight at the impact strength of 40 kd) using PSI (Precision Systems and Instrumentation) impactor. After confirming that a certain damage was given within the error range based on the data of injury level, the incision sites were sealed. After disinfecting the incision sites, the mice were raised in cages (2 mice/cage). Urination was induced by massaging the bladder three times a day. […] Louis, Mo.) dissolved in saline was immediately administered into injured mice via intraperitoneal injection (200 mg/kg). Saline was administered for the control. The administration was performed once a day and continued for 2 weeks. BBB test is the method to evaluate the recovery of various nerve fascicles controlling exercise function in combination, in which scores are recorded from 0 to 21. […] A normal mouse got 21 scores for that. So, the exercise function is regarded to be improved as the score got higher. […] The mice were let go freely in the box so as for the mice to be adapted to the experimental environment. […] The average of BBB test scores obtained from those five trained experimenters was considered as the final BBB score for the mouse. To eliminate personal prejudice on the test animal, the experimenters were not given any information on the mice. They only observed the mice 4 minutes every time to give scores.

With `CNCCC(Oc1ccc(C(F)(F)F)cc1)c1ccccc1` (stereo not shown) [fluoxetine], the “ZO-1 (immunohistochemical staining)” value in the assay with ZO-1 [1] is recorded as “hardly reduced”. For the same molecule, in assay [2], the “anticonvulsant effects of carbamazepine, phenytoin, and ameltolide” value is given as “increased”. In the assay on CCL-4, the “expression of CCL-4” value is reported as “suppressed”. For the same molecule, the “expression of CCL-3” value with CCL-3 was “suppressed”. The “expression of MMP-12” value in the assay on MMP-12 is given as “significantly reduced”. In addition, the “MMP-9 activity (gelatinase activity)” value in the assay with MMP-9 [3] was “significantly reduced”. Moreover, the “MMP-2 activity (gelatinase activity)” value in the assay on MMP-2 [4] was “significantly reduced”. Besides, the “expression of MMP-2” value with MMP-2 [5] was “significantly reduced”. For the same molecule, the “crossing frequency of forelegs and hind legs during walking” value in the assay with spinal cord injury mouse (672 h) is given as “approximately 50%”. Besides, in the assay with spinal cord injury mouse (from 1 week after spinal cord injury, compared with saline only), the “BBB points, course” value is listed as “began to increase”. In addition, the BBB point in the assay on spinal cord injury mouse (ip, 200 mg/kg) was found to be 10.2±0.92. Moreover, in the assay on MMP-9 [6], the “expression of MMP-9” value is reported as “significantly reduced”. For the same molecule, the “amount of ZO-1” value in the assay on ZO-1 [7] is listed as “not reduced”. Also, the “number of macrophages in spinal cord tissues” value with macrophages is “significantly reduced”. Further, in the assay with neutrophils, the “number of neutrophils in spinal cord tissues” value is listed as “significantly reduced”.

For the molecule `C[C@]12N[C@H](Cc3ccccc31)c1ccccc12` [MK-801], the “neurotoxic effect of Aβ” value in the assay on NMDA receptor was “inhibited”.

The values above are taken from US20140303256A1 (UNIVERSITY INDUSTRY COOPERATION GROUP OF KYUNG HEE …, priority 2011, published 2014).
